According to patent publication US20140030808A1, “Method for Cellular RNA Expression” (BIONTECH AG, priority 2010, published 2014):
Read-outs that look alike come from different tables or passages of the source.

Test system: Primary human foreskin fibroblasts (BJ, CCD1079Sk, HFF)
Format: cell-based
Conditions: 2 μM; for luciferase expression after transient treatment: BJ and CCD1079SK

Nc1ncc2[nH]cnc2n1 [2-aminopurine]
luciferase expression after transient treatment (7 h incubation period): did not results in a significant increase of luciferase expression | luciferase expression after transient treatment (24 h treatment): rapidly reversed after removal of the inhibitors | luciferase expression after transient treatment (48 h treatment): less efficient than a permanent treatment | duration of high luciferase expression levels (permanent inhibition): 5 days
